Data from patent US10111885B2, “Compositions and therapeutic methods for the treatment of complement-associated diseases” (Resverlogix Corp., priority 2015, dated 2018).
Where two headings read alike, the source gives them in different places.

Experiments:
[1] = system: C3 mRNA; test: Complement gene mRNA expression, TaqMan real-time PCR, Huh-7 cells; assay type: cell-based, human; conditions: Homo sapiens
Text: (§1) In this example, mRNA levels from cultured cells were quantitated. The assay can be used to determine the effect of compound(s) on regulating mRNA levels, including those compounds in the present invention. Complement genes are expressed at high endogenous levels, but their expression can also be stimulated with various cytokines in inflammatory conditions. Experiments in this example target both basal and inflammatory complement gene expression. Compound mediated changes in gene expression and resulting mRNA levels are presented in Tables 2, 3 and 4 as well as FIGS. 1, 2, 3 and 4 below.
(§2) Huh-7 and HepG2 cells are liver-derived cell lines and are models for what can occur in the liver. Huh-7 cells (JCRB Cell Bank) were introduced to 96-well plates (^˜2.5×10^5 per well) in 100 μL DMEM containing 10% (v/v) FBS, 100 U/mL penicillin, 100 ug/mL streptomycin and 5 ug/mL plasmocin (all reagents from Gibco, except for the former, which was obtained from Invivogen). After 24 h, Huh-7 cells were treated with compounds in the same media formulation used for plating, and supplemented with 0.1% DMSO for the amount of time indicated in tables 2, 3, and 4. For select experiments, 24 h post-plating, cells were treated with cytokines and the compound of interest simultaneously, for a total treatment time of 48 h. Alternatively, 24 h after plating, cells were pre-treated with cytokines for 24 h before adding the compound of interest for 48 h. HepG2 cells (ATCC) were cultured in 96-well plates (^˜2.5×10^5 per well) in MEM containing 10% FBS, 1× non-essential amino acids, 1 mM sodium pyruvate, 2 mM L-glutamine, 100 U/mL penicillin, 100 ug/mL streptomycin and 5 ug/mL plasmocin. Serum amount was reduced to 0.5% for treatments with compound or cytokines. Timing of treatment of HepG2 cells with compounds and cytokines was as described for Huh-7 cells. Primary human hepatocytes (CellzDirect/Life Technologies) were plated in collagen coated 96-well plates at 70 000 cells/well, then overlaid with Matrigel™ as recommended by the supplier. Cells were treated with compounds of interest and/or cytokines for the indicated time points in the recommended media supplemented with 0.1% DMSO and 10% FBS (v/v). Cells were harvested by mRNA Catcher PLUS Kit (Life Technologies) followed by real-time PCR using the RNA UltraSense One-Step qRT-PCR System. The level of the mRNA of interest was measured by TaqMan real-time PCR relative to the endogenous control cyclophilin A in the same sample. Data were acquired using the ViiA-7 Real Time PCR System (Applied Biosystems).
(§3) Downregulation of expression of components of the complement cascade will result in reduced activity of the pathway and thus will constitute a positive result. Tables 2 and 3 list the concentration of compounds at which the level of the indicated mRNA is reduced by 50%, as well as the duration of treatment with compound. Table 4 lists the maximum reduction in the indicated mRNA measured in primary human hepatocytes treated with compounds for up to 72 hours. FIGS. 1, 2, 3 and 4 show effects of compounds on cytokine-induced (i.e. inflammatory) expression of complement genes in Huh-7 cells and HepG2 cells.

[2] = system: C4a/C4b mRNA; test: as above; assay type: cell-based, human; conditions: Homo sapiens
Text: as §1, §2, §3

[3] = system: C5 mRNA; test: as above; assay type: cell-based, human; conditions: Homo sapiens; Huh-7, 48 h treatment; read-out: C5 (48 h) mRNA, half maximal inhibitory concentration (IC50)
Text: as §1, §2, §3

[4] = system: ex vivo perfused pig xenografts; conditions: porcine-to-human kidney perfusion animal model; cited from earlier work
[5] = system: erythrocyte lysis; conditions: erythrocyte lysis animal model; cited from earlier work
[6] = hereditary angioedema; cited from earlier work
[7] = Huh-7, 48 h treatment (Table 3), read-out: mRNA expression in Huh-7 cells: IC50 (uM), C3
[8] = Huh-7, 48 h treatment (Table 3), read-out: mRNA expression in Huh-7 cells: IC50 (uM), C4
[9] = Huh-7, 48 h treatment, read-out: C3 (48 h) mRNA, half maximal inhibitory concentration (IC50)
[10] = Huh-7, 48 h treatment, read-out: C4a/C4b (48 h) mRNA, half maximal inhibitory concentration (IC50)

Molecule	IC50 [1, 7]	IC50 [2, 8]	further results
COc1cc(OC)c2c(=O)[nH]c(-c3cc(C)c(O)c(C)c3)nc2c1 [RVX000206]	3.6 µM	9.3 µM	–
COc1cc(OC)c2c(=O)[nH]c(-c3ccc(N4CCN(C)CC4)cc3)nc2c1 [RVX000255, 5,7-dimethoxy-2-(4-(4-methylpiperazin-1-yl)phenyl)quinazolin-4(3H)-one]	20.4 µM	17.4 µM	–
COc1cc(OC)c2c(=O)[nH]c(-c3cc(C)c(OCCN4CCCC4)c(C)c3)nc2c1 [RVX000297]	–	–	IC50 [3]: > 10 µM; IC50 [1, 9]: 4.7 µM; IC50 [2, 10]: 4.5 µM
COc1cc(OC)c2c(=O)[nH]c(-c3cc(C)c(OCC(O)CO)c(C)c3)nc2c1 (stereo not drawn) [RVX000344]	11.6 µM	15.6 µM	–
COc1cc(OCCN2CCCC2)cc(-c2nc3cc(OC)cc(OC)c3c(=O)[nH]2)c1 [RVX000641]	12.6 µM	9.3 µM	–
COc1cc(OC)c2c(=O)[nH]c(-c3cc(C)c(OCCN4CCCC4)c(C)c3)nc2n1 [RVX000662]	29.2 µM	21.1 µM	–
COc1cc(OC)c2c(=O)[nH]c(-c3ccc4[nH]c(CN(C)C)cc4c3)nc2c1 [RVX000668]	9.5 µM	15.6 µM	–
COc1cc(OC)c2c(=O)[nH]c(-c3cc(C)c(OCCN4CCC(F)(F)C4)c(C)c3)nc2c1 [RVX000843]	11.1 µM	> 50 µM	–
COc1cc(OC)c2c(=O)[nH]c(-c3cc(C)c(OCCNS(C)(=O)=O)c(C)c3)nc2c1 [RVX002093, N-(2-(4-(5,7-dimethoxy-4-oxo-3,4-dihydroquinazolin-2-yl)-2,6-dimethylphenoxy)ethyl)methanesulfonamide]	18.5 µM	17.2 µM	–
COc1cc(OC)c2c(=O)[nH]c(-c3cc(C)c(OCCNC(C)=O)c(C)c3)nc2c1 [RVX002101]	11.3 µM	22 µM	–
COc1cc(OC)c2c(=O)[nH]c(-c3cc(C)c(OCCNC(=O)C(C)C)c(C)c3)nc2c1 [RVX002103]	13.9 µM	13.8 µM	–
COc1cc(OC)c2c(=O)[nH]c(-c3ccc(N4CCN(C(C)C)CC4)cc3)nc2c1 [RVX002109]	–	–	IC50 [3]: > 50 µM; IC50 [1, 9]: 34.8 µM; IC50 [2, 10]: 62.2 µM
COC(=O)NCCOc1c(C)cc(-c2nc3cc(OC)cc(OC)c3c(=O)[nH]2)cc1C [RVX002113]	5.8 µM	7.8 µM	–
COc1cc(OC)c2c(=O)[nH]c(-c3cc(C)c(OCCNC(C)C)c(C)c3)nc2c1 [RVX002135]	–	–	IC50 [3]: 37.9 µM; IC50 [1, 9]: 2.2 µM; IC50 [2, 10]: 4.3 µM
COc1cc(OC)c2c(=O)[nH]c(-c3ccc(N4CCNCC4)cc3)nc2c1 [RVX002141]	15.4 µM	17.8 µM	–
CC[C@H](C)[C@H](N)C(=O)N[C@H]1CSSC[C@@H](C(=O)N[C@H](C(N)=O)[C@@H](C)O)NC(=O)[C@H](CCCN=C(N)N)NC(=O)[C@H](Cc2cnc[nH]2)NC(=O)[C@H](Cc2cnc[nH]2)NC(=O)CNC(=O)[C@H](Cc2c[nH]c3ccccc23)NC(=O)[C@H](CC(=O)O)NC(=O)[C@H](CCC(N)=O)NC(=O)[C@H](C(C)C)NC(=O)[C@H](C(C)C)NC1=O [compstatin]	–	–	graft survival [4]: prolonged graft survival; reduction of hemolysis [5]: 50%
Recombinant human C1INH: recombinant human C1 esterase inhibitor (protein, UniProt P05155 23-500, looked up) Plasma protease C1 inhibitor: NPNATSSSSQDPESLQDRGEGKVATTVISKMLFVEPILEVSSLPTTNSTTNSATKITANTTDEPTTQPTTEPTTQPTIQPTQPTTQLPTDSPTQPTTGSFCPGPVTLCSDLESHSTEAVLGDALVDFSLKLYHAFSAMKKVETNMAFSPFSIASLLTQVLLGAGENTKTNLESILSYPKDFTCVHQALKGFTTKGVTSVSQIFHSPDLAIRDTFVNASRTLYSSSPRVLSNNSDANLELINTWVAKNTNNKISRLLDSLPSDTRLVLLNAIYLSAKWKTTFDPKKTRMEPFHFKNSVIKVPMMNSKKYPVAHFIDQTLKAKVGQLQLSHNLSLVILVPQNLKHRLEDMEQALSPSVFKAIMEKLEMSKFQPTLLTLPRIKVTTSQDMLSIMEKLEFFDFSYDLNLCGLTEDPDLQVSAMQHQTVLELTETGVEAAAASAISVARTLLVFEVQQPFLFVLWDQQHKFPVFMGRVYDPRA	–	–	symptoms of repeat HAE attacks [6]: effective in improving symptoms
